The text below walks through data of ChEMBL document CHEMBL1955740, “Structure-based virtual screening approach to the discovery of p38 MAP kinase inhibitors” (Bioorg Med Chem Lett, 2012).

What is called pIC50 is −log10 of the IC50, conventionally taken in molar units.

pIC50: −log10 of the molar value.

Experiment [1] deals with T1, Mitogen-activated protein kinase 14 (Homo sapiens, UniProt Q16539). Kind of experiment: Inhibition of MAPK p38alpha assessed as activity remaining at 50 uM relative to control.
In experiment [2] the target is T1, Mitogen-activated protein kinase 14. Kind of experiment: Inhibition of MAPK p38alpha.

T1 sequence (Q16539 whole entry): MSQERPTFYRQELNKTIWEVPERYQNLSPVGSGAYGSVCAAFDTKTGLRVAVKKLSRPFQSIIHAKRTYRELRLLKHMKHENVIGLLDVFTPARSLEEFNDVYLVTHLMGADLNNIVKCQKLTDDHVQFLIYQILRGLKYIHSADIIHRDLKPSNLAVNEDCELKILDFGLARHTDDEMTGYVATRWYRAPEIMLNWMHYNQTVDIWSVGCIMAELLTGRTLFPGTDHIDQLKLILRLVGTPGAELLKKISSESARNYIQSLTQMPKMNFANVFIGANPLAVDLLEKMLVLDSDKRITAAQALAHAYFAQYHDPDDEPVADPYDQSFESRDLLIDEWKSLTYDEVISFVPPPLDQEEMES

For the compound `CCn1cc(/C=C2/Oc3c(ccc(O)c3CN3CCOCC3)C2=O)c2ccccc21`, the Activity in experiment [1] was 37%. In experiment [2], this compound had a negative-log IC50 (pIC50) of less than 4.52.
For `Nc1nc(Nc2ccccc2)sc1C(=O)c1ccccc1`, in that order: 8.1% and 6.14.
Regarding `O=C1c2ccccc2C(=O)N1CCc1nc2c3c(-c4ccco4)c(-c4ccco4)oc3ncn2n1`, the Activity in experiment [1] was found to be 39%. Moreover, the pIC50 in experiment [2] is less than 4.52.
On to `Cn1cc(/C=C2/C(=O)NC(=O)N(CCc3ccccc3)C2=O)c2ccccc21`, for which, in experiment [1], the Activity was found to be 32%. For the same compound, the pIC50 in experiment [2] is 4.77.
On to `NC(=O)c1ccc(Nc2nnc(-c3ccc(O)cc3)c3ccccc23)cc1`, for which the Activity in experiment [1] amounted to 41%. Besides, the pIC50 in experiment [2] is less than 4.52.
Regarding `Cc1cccc(-c2nc(Nc3ccc(C(=O)O)cc3)c3ccccc3n2)c1`, the Activity in experiment [1] worked out at 34%. The compound further showed a pIC50 in experiment [2] of 4.69.
